pEC50: −log10 of the molar value.

The subject of this experiment is HIV-IIIb. As to the kind of experiment: Antiviral assay in MT4 cells. The class given is cell-based. To be noted: Human immunodeficiency virus 1, MT4, 120 h; MT-4 cells mixed with HIV-IIIb at m.o.i. 0.003; 5 days at 37° C.; CellTiter-Glo luminescence; 50% decrease in signal, a measure of HIV-1 replication. Here is the method:
Antiviral Assay in MT4 Cells For the antiviral assay, 40 μL of a concentration required to achieve a final effective 1× test concentration of 3-fold serially diluted compound in culture medium with 10% FBS was added to each well of a 384-well plate (10 concentrations) in quadruplicate. MT-4 cells were next mixed with HIV-IIIb at an m.o.i of 0.003 for 1 hour, after which time 35 μL of virus/cell mixture (2000 cells) was immediately added to each well containing 40 μL of diluted compound. The plates were then incubated at 37° C. for 5 days. After 5 days of incubation, 25 μl of 2× concentrated CellTiter-Glom Reagent (catalog #G7571, Promega Biosciences, Inc., Madison, WI) was added to each well containing MT-4 cells. Cell lysis was carried out by incubating at room temperature for 10 min and then chemiluminescence was read.
By pEC50 is commonly meant the negative decadic logarithm of the EC50, by convention in mol/L. In turn, `CC1(O)CN(c2nc3nc([C@H](Cc4cc(F)cc(F)c4)NC(=O)Cn4nc(C(F)(F)F)c5c4C(F)(F)[C@@H]4C[C@H]54)c(-c4ccc5n[nH]c(=O)n5c4)cc3s2)C1` [Compound 48, 2-((3bS,4aR)-5,5-difluoro-3-(trifluoromethyl)-3b,4,4a,5-tetrahydro-1H-cyclopropa[3,4]cyclopenta[1,2-c]pyrazol-1-yl)-N—((S)-2-(3,5-difluorophenyl)-1-(2-(3-hydroxy-3-methylazetidin-1-yl)-6-(3-oxo-2,3-dihydro-[1,2,4]triazolo[4,3-a]pyridin-6-yl)thiazolo[4,5-b]pyridin-5-yl)ethyl)acetamide] had a pEC50 of 6.60.
For `NC(=O)c1cc(-c2cc3sc(N4CCN(c5ccc(Cl)cc5)CC4)nc3nc2[C@H](Cc2cc(F)cc(F)c2)NC(=O)Cn2nc(C(F)(F)F)c3c2C(F)(F)[C@@H]2C[C@H]32)ccc1F` [Compound 140, 5-(2-(4-(4-chlorophenyl)piperazin-1-yl)-5-((S)-1-(2-((3bS,4aR)-5,5-difluoro-3-(trifluoromethyl)-3b,4,4a,5-tetrahydro-1H-cyclopropa[3,4]cyclopenta[1,2-c]pyrazol-1-yl)acetamido)-2-(3,5-difluorophenyl)ethyl)thiazolo[4,5-b]pyridin-6-yl)-2-fluorobenzamide] the value was 5.86; for `Cn1nc(NS(C)(=O)=O)c2c(Cl)ccc(-c3cc4[nH]c(C5CC5)nc4nc3[C@H](Cc3cc(F)cc(F)c3)NC(=O)Cn3nc(C(F)F)c4c3C(F)(F)[C@@H]3C[C@H]43)c21` [Example 97, N—((S)-1-(6-(4-chloro-1-methyl-3-(methylsulfonamido)-1H-indazol-7-yl)-2-cyclopropyl-1H-imidazo[4,5-b]pyridin-5-yl)-2-(3,5-difluorophenyl)ethyl)-2-((3bS,4aR)-3-(difluoromethyl)-5,5-difluoro-3b,4,4a,5-tetrahydro-1H-cyclopropa[3,4]cyclopenta[1,2-c]pyrazol-1-yl)acetamide], 8.51.
Then `NC(=O)c1cc(-c2cc3nc(O)oc3nc2[C@H](Cc2cc(F)cc(F)c2)NC(=O)Cn2nc(C(F)(F)F)c3c2C(F)(F)[C@@H]2C[C@H]32)ccc1F` [Example 114, 5-(5-((S)-1-(2-((3bS,4aR)-5,5-difluoro-3-(trifluoromethyl)-3b,4,4a,5-tetrahydro-1H-cyclopropa[3,4]cyclopenta[1,2-c]pyrazol-1-yl)acetamido)-2-(3,5-difluorophenyl)ethyl)-2-hydroxyoxazolo[5,4-b]pyridin-6-yl)-2-fluorobenzamide], with 6.23.
For `Cn1nc(N)c2c(Cl)ccc(-c3cc4sc(NCC(C)(C)O)nc4nc3[C@H](Cc3cc(F)cc(F)c3)NC(=O)Cn3nc(C(F)F)c4c3C(F)(F)[C@@H]3C[C@H]43)c21` [Example 116, N—((S)-1-(6-(3-amino-4-chloro-1-methyl-1H-indazol-7-yl)-2-((2-hydroxy-2-methylpropyl)amino)thiazolo[4,5-b]pyridin-5-yl)-2-(3,5-difluorophenyl)ethyl)-2-((3bS,4aR)-3-(difluoromethyl)-5,5-difluoro-3b,4,4a,5-tetrahydro-1H-cyclopropa[3,4]cyclopenta[1,2-c]pyrazol-1-yl)acetamide] the value was 8.46.
Consider `NC(=O)c1cc(-c2cc3sc(-c4cn[nH]c4)nc3nc2[C@H](Cc2cc(F)cc(F)c2)NC(=O)Cn2nc(C(F)(F)F)c3c2C(F)(F)[C@@H]2C[C@H]32)ccc1F` [Compound 149, 5-(5-((S)-1-(2-((3bS,4aR)-5,5-difluoro-3-(trifluoromethyl)-3b,4,4a,5-tetrahydro-1H-cyclopropa[3,4]cyclopenta[1,2-c]pyrazol-1-yl)acetamido)-2-(3,5-difluorophenyl)ethyl)-2-(1H-pyrazol-4-yl)thiazolo[4,5-b]pyridin-6-yl)-2-fluorobenzamide], for which the pEC50 was 6.97. Compared with the last molecule, the pEC50 is 1.49 log units lower.
In turn, `Cn1nc(NS(C)(=O)=O)c2cccc(-c3cc4sc(NC5CNC(=O)C5)nc4nc3C(Cc3cc(F)cc(F)c3)NC(=O)Cn3nc(C(F)(F)F)c4c3C(F)(F)[C@@H]3C[C@H]43)c21` (stereo partly drawn) [Example 128, 2-((3bS,4aR)-5,5-difluoro-3-(trifluoromethyl)-3b,4,4a,5-tetrahydro-1H-cyclopropa[3,4]cyclopenta[1,2-c]pyrazol-1-yl)-N-(2-(3,5-difluorophenyl)-1-(6-(1-methyl-3-(methylsulfonamido)-1H-indazol-7-yl)-2-((5-oxopyrrolidin-3-yl)amino)thiazolo[4,5-b]pyridin-5-yl)ethyl)acetamide] had a negative-log EC50 (pEC50) of 6.47.
Molecule `COCc1nc2nc([C@H](Cc3cc(F)cc(F)c3)NC(=O)Cn3nc(C(F)F)c4c3C(F)(F)[C@@H]3C[C@H]43)c(-c3ccc(Cl)c4c(NS(C)(=O)=O)nn(C)c34)cc2[nH]1` [Example 102, N—((S)-1-(6-(4-chloro-1-methyl-3-(methylsulfonamido)-1H-indazol-7-yl)-2-(methoxymethyl)-1H-imidazo[4,5-b]pyridin-5-yl)-2-(3,5-difluorophenyl)ethyl)-2-((3bS,4aR)-3-(difluoromethyl)-5,5-difluoro-3b,4,4a,5-tetrahydro-1H-cyclopropa[3,4]cyclopenta[1,2-c]pyrazol-1-yl)acetamide] gave a pEC50 of 8.82. Compared with the last molecule, the pEC50 is 2.35 log units higher.
`O=C(Cn1nc(C(F)(F)F)c2c1CCCC2)N[C@@H](Cc1ccccc1)c1nc2ccccc2[nH]1` [Example 1, (S)—N-(1-(1H-benzo[d]imidazol-2-yl)-2-phenylethyl)-2-(3-(trifluoromethyl)-4,5,6,7-tetrahydro-1H-indazol-1-yl)acetamide]: the pEC50 is 4.53. Against the preceding molecule, the pEC50 is 4.29 log units lower.
Turning to `NC(=O)c1cc(-c2cc3sc(N4CCN(c5ccc(C(F)(F)F)cc5)CC4)nc3nc2[C@H](Cc2cc(F)cc(F)c2)NC(=O)Cn2nc(C(F)(F)F)c3c2C(F)(F)[C@@H]2C[C@H]32)ccc1F` [Compound 141, 5-(5-((S)-1-(2-((3bS,4aR)-5,5-difluoro-3-(trifluoromethyl)-3b,4,4a,5-tetrahydro-1H-cyclopropa[3,4]cyclopenta[1,2-c]pyrazol-1-yl)acetamido)-2-(3,5-difluorophenyl)ethyl)-2-(4-(4-(trifluoromethyl)phenyl)piperazin-1-yl)thiazolo[4,5-b]pyridin-6-yl)-2-fluorobenzamide], the negative logarithm of the EC50 (pEC50) is 5.74.
The molecule `Cn1nc(NS(C)(=O)=O)c2cccc(-c3cc4sc(N5CC6(CCN6)C5)nc4nc3[C@H](Cc3cc(F)cc(F)c3)NC(=O)Cn3nc(C(F)(F)F)c4c3C(F)(F)[C@@H]3C[C@H]43)c21` [Example 85, 2-((3bS,4aR)-5,5-difluoro-3-(trifluoromethyl)-3b,4,4a,5-tetrahydro-1H-cyclopropa[3,4]cyclopenta[1,2-c]pyrazol-1-yl)-N—((S)-2-(3,5-difluorophenyl)-1-(6-(1-methyl-3-(methylsulfonamido)-1H-indazol-7-yl)-2-(1,6-diazaspiro[3.3]heptan-6-yl)thiazolo[4,5-b]pyridin-5-yl)ethyl)acetamide] gave a pEC50 of 7.66.
`CN(C)CCNc1nc2nc([C@H](Cc3cc(F)cc(F)c3)NC(=O)Cn3nc(C(F)(F)F)c4c3C(F)(F)[C@@H]3C[C@H]43)c(-c3cccc4c(NS(C)(=O)=O)nn(C)c34)cc2s1` [Example 65, 2-((3bS,4aR)-5,5-difluoro-3-(trifluoromethyl)-3b,4,4a,5-tetrahydro-1H-cyclopropa[3,4]cyclopenta[1,2-c]pyrazol-1-yl)-N—((S)-2-(3,5-difluorophenyl)-1-(2-((2-(dimethylamino)ethyl)amino)-6-(1-methyl-3-(methylsulfonamido)-1H-indazol-7-yl)thiazolo[4,5-b]pyridin-5-yl)ethyl)acetamide] gave a pEC50 of 7.63. This pEC50 and that of the molecule before are within 0.2 log units of each other.
